Source: patent publication US6387945B2, “Lipoic acid analogs” (The Regents of the University of California, priority 2000, dated 2002)

Legend:
HT4 neuronal cells = assay: Cells' ability to retain the reduced forms (DTNB efflux assay), HT4 neuronal cells; format: cell-based, mouse; settings: 0.1 mM LA or LA-PLUS, FIG. 6B
Experimental: (§1) Jurkat T cells or neuronal HT4 cells were incubated with LA (0.1 mM) or LA-PLUS (0.1 mM). The medium of the cells was replaced by phosphate buffer saline that contained 250 uM of 5,5′-dithiobis-(2-nitrobenzoic acid) (DTNB). The free thiols in the medium were trapped by the DTNB and absorption was measured at 420 nm at different time intervals.
(§2) The efflux of DHLA and DHLA-PLUS from cells was measured in the medium of cells in culture. The medium was composed of PBS and DTNB. […] An illustration of how LA-PLUS crosses biological barriers such as membranes (also showing retention of DHLA-PLUS inside the cell) is given in FIG. 7.

Jurkat T cells = assay: Cells' ability to retain the reduced forms (DTNB efflux assay), Jurkat T cells; format: cell-based; settings: 0.1 mM LA or LA-PLUS, FIG. 6A
Experimental: as §1, §2

HT4 cells [1] = assay: Cell viability by LDH leakage after glutamate treatment; format: cell-based, mouse; settings: 10 mM glutamate, FIG. 2
Experimental: (§3) HT-4 cells (mouse hippocampal cell line) were purchased from American Type Culture Collection (ATCC, Bethesda, Md.). All experiments reported here were carried out with 10 mM glutamate.
(§4) HT4 cells were grown in DMEM supplemented with 10% serum and 100 U/ml penicillin-streptomycin at 37° C. in a humidified atmosphere containing 95% air/5% CO2.
(§5) All experiments were performed under the following protocol. Cells were allowed to grow to confluency, were trypsinized and subcultured in culture dishes at a concentration of 375,000 cells per millititer. The cells were continually cultured at 37° C. and were allowed to grow for 24 h, and then were exposed to glutamate treatment.
Cell viability was assayed using lactate dehydrogenase (LDH) leakage. After completion of the experiments, culture medium was removed from plates and centrifuged (500 g×5 min). The cells that detached from the monolayer following glutamate treatment were separated by centrifugation of the growth medium. […] LDH activity was measured from the samples spectophotometrically within two days of storage. Cell viability was determined using the following formula: viability=attached cell LDH activity/total LDH activity (medium+detached cell LDH activity+attached cell LDH activity).

HT4 cells [2] = assay: Flow cytometric assay of fragmented DNA (glutamate-induced apoptosis); format: cell-based, mouse; settings: 10 mM glutamate, 24 h, FIG. 1
Experimental: as §3, §4, §5
HT4 cells were exposed to 10 mM glutamate for 24 h with and without antioxidants. […] The permeablized cells were kept in the dark for 6 h at 4° C. and their DNA integrity was analyzed using a flow cytometer (XL, Coulter, FL) with argon-ion laser (excitation 488 nm) and the 575 nm emission was recorded in fluorescence channel 1 (FL1). […]
The pathway of cell death was explored by staining the cells for 6 h following the glutamate treatment with a DNA-binding fluorescent dye, propidum iodide (PI) in cells permeabilised with a low concentration of detergent (Triton X-100 0.1% w/v). […] The cells were analyzed by flow cytometry.

ICAM-1 = assay: PMA-induced ICAM-1 expression in ECV endothelial cells (flow cytometry); format: cell-based, human; settings: same concentration; 20 nM PMA, 24 h; FIG. 3
Experimental: EV304 (ECV), a spontaneously transformed immortal human endothelial cell line established from the vein of an apparently normal human umbilical cord, were obtained from ATCC (Bethesda, Md.). ECV cells were grown in medium 199 supplemented with 10% fetal calf serum, 100 U/ml penicillin and 100 μg/ml streptomycin. Cells were maintained in a standard culture incubator with humidified air containing 5% CO2 at 37° C. ECV monolayers were pretreated with LA or LA-PLUS for the time period indicated in the respective figure legend. Following the pretreatment, cells were activated using 20 nM PMA for 24 h. […] Appropriate isotypic controls were used for background fluorescence in the ICAM-1 assay. The fluorescence and light scattering properties (forward scatter, FS; side scatter, SS) of the cells were determined by using an EPICS-Elite (Coulter, Miami, Fla.) flow cytometer. Cells with FITC-conjugated antibodies were excited using a 488 nm argon ion laser and emission of FTIC was recorded at 525 nm. […] A logarithmic scale was used to measure both background and endothelial cell fluorescence. Background fluorescence was then subtracted from endothelial cell fluorescence, allowing linear comparisons of ICAM-1 expression between various samples.

L6 myoblasts = assay: Glucose uptake by L6 rat muscle derived cells; format: cell-based; settings: 1 h pretreatment; FIG. 4
Experimental: L6 cells were obtained from American Type Culture Collection (MD). Dulbecco's Phosphate Buffered Saline (DPBS) and Dulbecco's Modified Eagle Medium (DMEM) supplemented with high glucose, L-glutamine, pyridoxine hydrochloride and 110 mg/l sodium pyruvate were obtained from GIBCO BRL (Life Technologies NY). Fetal calf serum (FCS) and other reagents for the culture medium were obtained from the cell culture facility of the University of California-San Francisco. Undifferentiated mononucleated cells (myoblasts) were used in this study. For experiments, cells were seeded at a concentration of 0.2×10^6 cells per well in 6-well flat bottom tissue culture treated polystyrene plates (FALCON, Becton Dickinson Labware, NJ). Cultures were grown in DMEM supplemented with 10% FCS, 5 mM glutamine, 0.3% D-glucose, 50 U/ml of penicillin, and […] of streptomycin, in humidified air containing 5% CO2 at 37° C. Cell viability was greater than 97% as estimated by trypan blue exclusion or propidium iodide staining. The cells were split once every third day. All experiments were carried out on cells (6th to 12th passage) in the third day of the last passage. Cells seeded in 6-well plates were washed thrice with 1 ml transport suffer (140 mM NaCl, 5 mM KCl, 2.5 mM MgCl2, 1 mM CaCl2 in 20 mN tris-HEPES, pH 7.4) at room temperature. […] Radioactivity in each sample was read using a scintillation counter.

In the case of `O=C(O)CCCC[C@@H](S)CCS` (racemic) [DHLA, dihydrolipoate], the “efflux of reduced form from cells / retention inside cells” value (HT4 neuronal cells) is reported as “effluxed from the cell faster than DHLA-PLUS” and the “efflux of reduced form from cells / retention inside cells” value (Jurkat T cells) is reported as “effluxed from the cell faster than DHLA-PLUS”.

`O=C(O)CCCCC1CCSS1` (centres unmarked) [LA, 1,2-dithiolane-3-pentanoic acid, reference compound] was tested, and the “protection of HT4 cells against glutamate cytotoxicity (viability)” value (HT4 cells [1]; 100 μM compound) was “did not provide total protection”.

In the case of `CN(C)CCNC(=O)CCCCC1CCSS1.Cl` (centres unmarked) [LA-PLUS, N,N-Dimethyl-N-2-Amidoethyl Lipoate (HCl)], the “glutamate-induced apoptotic process (cell shrinkage, DNA fragmentation)” value (HT4 cells [2]; 50 μM compound) is reported as “completely blocked”, the “anti-apoptotic effect compared to LA” value (HT4 cells [2]) is reported as “much more pronounced compared to the effect of LA” and the “down-regulation of PMA induced ICAM-1 expression compared to LA” value (ICAM-1) is reported as “much more effectively down-regulated”. The “efficiency in protecting HT4 cells compared to lipoic acid” value (HT4 cells [1]) was “more efficient in protecting the HT4 cells than lipoic acid” and the “enhancement of glucose uptake compared to LA” value (L6 myoblasts) was “clearly more effective than LA”.
